# US9808434B2, “Compound for treating cancer and diabetes” (CITY OF HOPE, priority 2011, dated 2017)
# What was measured:
# SK-Mel-2 = assay: Colony formation assay, SK-Mel-2; assay type: cell-based, human; details: 5 μM
# Procedure: (§1) Cell survival was evaluated using a standard colony-forming assay. In total, 1×10^5 cells/mL were incubated with COH-SR4 (1.5 μM or 5 μM) or elesclomol (5 μM) for 24 h, and aliquots of 50 or 100 μL were added to 60 mm size petri dishes, containing 4 mL culture medium. After 7 or 10 days, adherent colonies were fixed, stained with 0.5% methylene blue for 30 min and colonies were counted using the Innotech Alpha Imager HP (91).
# B16 mouse melanoma tumor [1] = assay: Histopathology (IHC) of B16 melanoma tumor sections; assay type: in vivo; details: treated vs control tumors
# Procedure: B16 melanoma bearing C57B mice tumor sections were treated without or with COH-SR4, and used for histopathologic analyses.
# H&E stain, or hematoxylin and eosin stain, a general gross morphology stain were used. […] Eosin was pink and stained proteins nonspecifically. In a typical tissue, nuclei were stained blue, whereas the cytoplasm and extracellular matrix had varying degrees of pink staining. The pink coloration in the control tumor cells indicated cell proliferation (FIG. 57)
# IHC analyses for Ki-67 expression (marker of cellular proliferation), CD31 (angiogenesis marker), and pAMPK (cellular regulator of lipid and glucose metabolism) from tumors in mice of control and COH-SR4-treated groups were carried out. Statistical significance of difference was determined by two-tailed Student's t test. When COH-SR4-treated tumor sections were compared with the control, p<0.001. […] Sections were counterstained with Hematoxylin (blue). Photomicrographs at 40× magnification were acquired using Olympus Provis AX70 microscope. Percent staining was determined by measuring positive immuno-reactivity per unit area. Arrows indicated the areas for positive staining for an antigen. The intensity of antigen staining was quantified by digital image analysis. Bars represented mean+S.E. (n=5); “*” means p<0.001 compared with control.
# [2] = test system: HAVSMC, NHDFs, melanocytes; assay: MTT assay, normal cells; assay type: cell-based, human; details: 24 h and 48 h
# Procedure: Cell density measurements were performed using a hemocytometer to count reproductive cells resistant to staining with trypan blue. Approximately 20,000 cells were plated into each well of 96-well flat-bottomed micro-titer plates. After 12 h or 24 h incubation at 37° C., medium containing either COH-SR4 (ranging 0-200 μM) or elesclomol (ranging 0-20 μM) were added to the cells. After 24 h, 48 h or 96 h incubation, 20 μL of 5 mg/mL MTT were introduced to each well and incubated for 2 h. The plates were centrifuged and medium was decanted. Cells were subsequently dissolved in 100 μl DMSO with gentle shaking for 2 h at room temperature, followed by measurement of OD570 (91).
# NHDF = assay: Colony formation assay, NHDF; assay type: cell-based, human; details: FIG. 67B, 5 μM, vs untreated control
# Procedure: as §1
# HAVSMC = assay: Colony formation assay, HAVSMC; assay type: cell-based, human; details: for colony forming potential: vs untreated control
# Procedure: as §1
# [3] = test system: isolated mouse liver mitochondria; assay: Oxygen consumption rate in isolated liver mitochondria; details: increasing concentrations
# Procedure: Mitochondria were isolated from the livers of 10 week old male C57BL/6 mice. Mice were euthanized by CO2 inhalation followed by cervical dislocation. Livers were removed, minced with scissors, and immediately placed in ˜10 volumes of ice-cold mitochondria isolation medium (250 mM sucrose, 10 mM Tris-HCl, 1 mM EGTA, 1% fatty acid/endotoxin-free BSA, pH 7.4). The presence of BSA in the medium allowed the endogenous free fatty acids to be chelated from the homogenate suspension. The tissues were homogenized using 25-30 strokes in Potter-Elvehjem tissue grinder. Following centrifugation at 800×g for 10 min at 4° C., the fats/lipids were carefully aspirated, and the remaining supernatant was filtered through sterile 0.40 micron nylon mesh membrane and centrifuged at 8,000×g for 10 min at 4° C. […] The mitochondrial protein concentration was determined by the DC Protein Assay kit (Bio-Rad, Hercules, Calif.) with BSA as a standard. […]
# Isolated mouse liver mitochondria (2 μg/well or 5 μg/well) were seeded on Seahorse 96-well plate, and respiration (OCR) was measured on mitochondria respiring either on pyruvate (10 mM) and malate (2 mM) or succinate (10 mM) and rotenone (2 μM) using a Seahorse 96 Flux Analyzers according to Rogers et al (90).
# B16 mouse melanoma tumor [4] = assay: Western-blot of signaling proteins in B16 tumor tissue lysates; assay type: in vivo; details: band density ratio
# Procedure: Western-blot analyses of signaling proteins in tumor tissue lysates in control and COH-SR4 treated groups were shown in FIG. 58. Crude fraction (about 50 μg) and WB with various antibodies were used.
# Hs600T = assay: Colony formation assay, Hs600T; assay type: cell-based, human; details: 10 μM, vs untreated control
# Procedure: Cell survival was evaluated using a standard colony-forming assay. […] After 7 or 10 days, adherent colonies were fixed, stained with 0.5% methylene blue for 30 min and colonies were counted using the Innotech Alpha Imager HP (91).
# PBT-017 glioma cells = assay: Apoptosis of PBT-017 glioma cells, cell counts; assay type: cell-based; details: 2 or 10 μM, 4 days
# Procedure: PBT-017 glioma cells were incubated with nothing (control), DMSO, and COH-SR4 at 2 μM or 10 μM for 4 days.
# GST = GST activity towards CDNB in melanoma cell supernatants; assay type: biochemical; details: B16-F0, Hs600T, A2058 supernatants; 1 mM GSH and CDNB
# Procedure: GST activity towards 1-chloro 2,4-dinitro benzene (CDNB) and its inhibition by COH-SR4 was performed in 28000×g crude supernatant prepared from B16-F0, Hs600T and A2058 cells. Human liver purified GST was used as a control (inset). The inhibitory effect of COH-SR4 on GST was studied at a fixed concentration of GSH and CDNB (1 mM each) and varying concentrations of inhibitor. The enzymes were pre-incubated with the inhibitor for 5 min at 37° C. prior to the addition of the substrates. […] The ability of COH-SR4 to inhibit GST activity in melanomas represents a potential mechanism that contributes to decreased survival of melanoma cells following COH-SR4 treatment (FIG. 68A).
# [5] = Metabolic effects in Type 2 diabetes db/db mice; assay type: in vivo, mouse; details: five weeks
# Procedure: All animal experiments were carried out in accordance with the protocols approved by the Institutional Animal Care and Use Committee of the City of Hope. Nine-week old male C57BL/6J mice fed on high fat diet (HFD, 60% fat) and 10-week old db/db mice were given COH-SR4 (5 mg/kg B.W.) or vehicle (corn oil) via oral gavage every other day for six and five weeks, respectively. Oral glucose tolerance test was performed on animals after an overnight fast. All other metabolic parameters were measured at the end of study. Liver samples were stained with H&E and Oil Red O.
# All data represented are mean±SEM. *P<0.05, **P<0.01 vs. LFD or db/+; ^#P<0.05, ^##P<0.01 vs. HFD or db/db. n=12 animals per group for HFD mice. LFD=low fat diet (lean), HFD=high fat diet (obese). n=8 animals per group for db/db mice.
# Representative mice in each treatment group (db/+, db/db, db/db treated with COH-SR4 (db/db+SR4)) depicted gross images of whole body shape (top) and abdominal fat (bottom) (FIG. 85H).
smiles,measurement,setting,value
"O=C(Nc1cc(Cl)cc(Cl)c1)Nc1cc(Cl)cc(Cl)c1 [COH-SR4, 1,3-bis(3,5-dichlorophenyl) urea]",colony formation,SK-Mel-2,48±6%
same,CD31 (angiogenesis marker),B16 mouse melanoma tumor [1],decreased CD31
same,Ki-67 expression (cellular proliferation),B16 mouse melanoma tumor [1],decreased Ki67
same,pAMPK,B16 mouse melanoma tumor [1],increased pAMPK
same,cytotoxicity in normal cells,[2],did not cause any significant cytotoxicity
same,colony forming potential,NHDF,97±3%
same,colony formation in normal cells,HAVSMC; 1.5 μM,did not result in significant inhibition of colony formation
same,colony forming potential,"HAVSMC; Example 18, FIG. 65B",96±4%
same,colony forming potential,"HAVSMC; FIG. 67B, 5 μM",95±4%
same,OCR of mitochondria respiring on pyruvate and malate or succinate-rotenone,[3],dose-dependently increased OCR of mitochondria
same,"Akt, ratio COH-SR4 group/Control Group",B16 mouse melanoma tumor [4],0.84
same,"Bcl2, ratio COH-SR4 group/Control Group",B16 mouse melanoma tumor [4],0.39
same,"Bim, ratio COH-SR4 group/Control Group",B16 mouse melanoma tumor [4],5.8
same,"CDK4, ratio COH-SR4 group/Control Group",B16 mouse melanoma tumor [4],0.29
same,"Cyclin B1, ratio COH-SR4 group/Control Group",B16 mouse melanoma tumor [4],0.32
same,"Fibronectin, ratio COH-SR4 group/Control Group",B16 mouse melanoma tumor [4],0.22
same,"Vimentin, ratio COH-SR4 group/Control Group",B16 mouse melanoma tumor [4],0.39
same,"pAMPK, ratio COH-SR4 group/Control Group",B16 mouse melanoma tumor [4],3.1
same,"pAkt, ratio COH-SR4 group/Control Group",B16 mouse melanoma tumor [4],0.32
same,colony formation,Hs600T,48±5%
same,fraction of apoptotic cells,PBT-017 glioma cells,increased the fraction of apoptotic cells
same,total GST activity towards CDNB,GST,inhibited the total GST activity to a significant extent
same,body weight,[5]; 5 mg/kg oral every other day,decreased body weight
same,HbA1c levels,[5],lower HbA1c levels
same,fasting blood glucose,[5],improved fasting blood glucose
same,glucose tolerance,[5],improved
same,hepatic steatosis,[5],reduced
same,hepatic triglycerides,[5],reduced hepatic triglycerides
